Laboratory results from patent US11466047B2, “Cyclic di-nucleotide compounds as sting agonists” (Merck Sharp & Dohme Corp., priority 2017, dated 2022).
Where two headings read alike, the source gives them in different places.

Legend:
full-length HAQ STING = full-length HAQ STING (Homo sapiens (Human), UniProt Q86WV6, G230A/H232R/R293Q/R71H); experiment: 3H-cGAMP filtration binding assay (HAQ STING); details: competition with tritiated cGAMP ligand, HAQ STING membrane
From the text: The ability of compounds to bind STING is quantified by the ability to compete with tritiated cGAMP ligand for human STING receptor membrane using a radioactive filter-binding assay. The binding assay employs STING receptor obtained from Hi-Five cell membranes overexpressing full-length HAQ STING prepared in-house and tritiated cGAMP ligand also purified in-house.
(§1) The ability of compounds to bind STING is quantified by their ability to compete with tritiated cGAMP ligand for human STING receptor membrane using a radioactive filter-binding assay. The binding assay employs STING receptor obtained from Trichoplusia ni cell membranes (T.ni; Expression Systems, cat #94-002F, www.expressionsystems.com) overexpressing full-length HAQ STING and tritiated cGAMP ligand.
The basic HAQ STING filtration assay protocol is as follows:
The compounds were serially titrated by the Hamilton STARPlus CORE in a 96-well plate (Greiner, #651201) using a 1:3 ten-point dose response format. After compound preparation, a 2.2 ug/ml working concentration of STING membrane (SEQ. ID. No. 1) was prepared by diluting concentrated membrane into assay buffer (lx PBS; Invitrogen #SH30028.02) and douncing 7× using a manual tissue homogenizer (Wheaton, #357546). 148 uL of prepared membrane was then manually added to each well of a 96-well deep-well polypropylene plate (Fisher Scientific, #12-566-121). Following membrane addition, 2 uL of either titrated test compound, DMSO control (Sigma #276855), or cold cGAMP control was added to the appropriate wells using a BIOMEK FX. Compound and membrane then preincubated for 60 min at RT to allow compound binding to equilibrate. Following equilibration, 8 nM of [^3H]c-GAMP ligand was prepared by diluting into assay buffer, and 50 uL of this working stock was then manually added to each well of the assay plate. Plates were then incubated at RT for 60 min, and the contents of each assay plate were then filtered through a 96-well GF/B filter plate (PerkinElmer, #6005250) using a TOMTEC MACH III Cell Harvester equipped with 20 mM HEPES buffer (Fisher Scientific, #BP299500). The filter plates were then dried at 55° C. for 30 min using a pressurized oven before 30 uL of ULTIMA GOLD F scintillate was added to each well. Tritium levels for each reaction well were then measured using a PerkinElmer TopCount plate reader.
(§2) After normalization to controls, the percent activity for each compound concentration was calculated by measuring the amount of remaining radioactivity. The plot of percent activity versus the log of compound concentration was fit with a 4-parameter dose response equation to calculate EC50 values.

full-length WT STING = full-length WT STING (Homo sapiens (Human), UniProt Q86WV6, H232R); experiment: 3H-cGAMP filtration binding assay (WT STING); details: WT STING membrane
Chain of full-length WT STING (Q86WV6 whole entry, looked up, stated change not applied): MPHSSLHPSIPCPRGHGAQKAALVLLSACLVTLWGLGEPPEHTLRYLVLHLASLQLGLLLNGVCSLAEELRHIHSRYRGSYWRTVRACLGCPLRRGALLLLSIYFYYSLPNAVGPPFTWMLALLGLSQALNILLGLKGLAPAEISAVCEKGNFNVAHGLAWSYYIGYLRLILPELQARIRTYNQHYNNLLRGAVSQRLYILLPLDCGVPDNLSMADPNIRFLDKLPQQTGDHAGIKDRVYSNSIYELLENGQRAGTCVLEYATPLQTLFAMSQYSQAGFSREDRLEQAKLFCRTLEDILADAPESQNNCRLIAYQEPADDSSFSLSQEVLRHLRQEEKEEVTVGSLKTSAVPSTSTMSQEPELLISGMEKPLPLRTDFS
Description: as §1, with “#94-002F,” for “#94-002F, www.expressionsystems.com)”, “WT” for “HAQ”
The basic WT STING filtration assay protocol is as follows:
16 nM of [^3H] c-GAMP ligand was prepared by diluting into assay buffer, and 50 uL of this working stock was manually added to each well of the assay plate. After ligand addition, 2 uL of either titrated test compound, DMSO control (Sigma #276855), or cold cGAMP control was added to the appropriate wells using a BIOMEK FX. The serially titrated compound was prepared on a Hamilton STARPlus CORE in a 96-well plate (Greiner, #651201) using a 1:3 ten-point dose response format. Following compound addition, a 2.2 ug/ml working concentration of STING membrane (SEQ. ID. No. 3) was prepared by diluting concentrated membrane into assay buffer (1×PBS; Invitrogen #SH30028.02) and douncing 7× using a manual tissue homogenizer (Wheaton, #357546). 148 uL of this prepared membrane was then manually added to each well of a 96-well deep-well polypropylene plate (Fisher Scientific, #12-566-121). Compound, ligand, and membrane then incubated for 60 min at RT before the contents of each assay plate were filtered through a 96-well GF/B filter plate (PerkinElmer, #6005250) using a TOMTEC MACH III Cell Harvester equipped with 20 mM HEPES buffer (Fisher Scientific, #BP299500). The filter plates were then dried at 55° C. for 30 min using a pressurized VWR oven before 30 uL of ULTIMA GOLD F scintillate was added to each well. Tritium levels for each reaction well were then measured using a PerkinElmer TopCount plate reader.
as §2

THP1 cells = experiment: IFN-β secretion in THP1 cell culture (5 h); assay type: cell-based, human; details: 30 μM compound, relative to 2′3′-cGAMP at 30 μM; for activation at 30 µM: Homo sapiens, THP-1, 5 h, read-out: % Effect at 30 μM relative to 2′3′-cGAMP
Description: The ability of compounds to stimulate the secretion of interferon-beta from THP1 cells was measured using a human IFN-β AlphaLISA kit (Perkin Elmer, Cat. No. AL265F). The basic protocol is as follows:
A Labcyte Echo 550 acoustic dispenser was used to transfer 120 nL of compound dissolved in DMSO into the wells of an empty, sterile 384-well microplate, (Corning, Cat. No. 3712). THP1 cells (American Type Culture Collection, Cat. No. TIB202) previously frozen in Recovery Medium (Life Technologies, Cat. No. 12648-010) were thawed and immediately diluted 10-fold into 37° C. assay medium (RPMI 1640+L-Glutamine & phenol red, Life Technologies, Cat. No. 11875-085; 0.5% heat inactivated fetal bovine serum, Sigma Aldrich, Cat. No. F4135; 1 mM Sodium Pyruvate, Life Technologies, Cat. No. 11360-070; lx non-essential amino acids; Life Technologies, Cat. No. 11140-050). The cell viability and count was ascertained using a Beckman Coulter V-Cell XR cell counter. The cell suspension was centrifuged at 200×g for 5 min at RT. Cells were resuspended to a density of 0.8×10^6/mL in 37° C. assay medium. Subsequent liquid transfers were performed using either a Matrix electronic multichannel pipette or an Agilent Bravo Automated Liquid Handling Platform.
The assay was started by dispensing 40 μL of the previously prepared cell suspension into the wells of the plate containing compounds. After 5 h incubation at 37° C., 5% CO2 in a humidified atmosphere, the plate of cells and compounds was centrifuged at 200×g for 5 min at RT. From each well, 5 μL of supernatant was transferred into corresponding wells of a white 384-well plate (Perkin Elmer, Cat. No. 6005620). To these supernatant-containing wells was added 10 μL of 5× Anti-Analyte Acceptor beads (50 μg/mL of AlphaLISA HiBlock Buffer) and incubated for 30 min at RT while shaking on an orbital plate shaker. To each well was added 10 μL of 5× Biotinylated Antibody Anti-analyte (5 nM in AlphaLISA HiBlock Buffer) and incubated on an orbital plate shaker for 60 min at RT or overnight at 4° C. To each well was added 25 μL of 2×SA-Donor beads (80 μg/mL in AlphaLISA HiBlock Buffer) and incubated for 30-45 min at RT in the dark while shaking on an orbital plate shaker. The plate was then read on a Perkin Elmer Envision (λex=680 nm, λem=570 nm). The percent effect of the AlphaLISA signal at each compound concentration was calculated based on 30 uM cGAMP positive controls and 0.3% DMSO negative controls. The plot of percent effect versus the log of compound concentration was fit with a 4-parameter concentration response equation to calculate EC50 values. The test compounds were tested at concentrations 30000, 10000, 3333, 1111, 370.4, 123.4, 41.2, 13.7, 4.6, and 1.5 nM with 0.3% residual DMSO. The control compound, cGAMP was tested at concentrations 100000, 33333, 11111, 3704, 1235, 412, 137, 46, and 15 nM with 0.3% residual DMSO.
Compounds of the disclosure were evaluated for IFN-β secretion in THP1 cell culture as described above. The following table tabulates the biological data for these compounds as percent activation relative to 2′3′-cGAMP at the 30 μM concentration.

[1] = competition with tritiated cGAMP ligand, read-out: EC50

Chain of full-length HAQ STING (Q86WV6 whole entry, looked up, stated change not applied): as above

Structure (SMILES): Nc1nc2c(ncn2[C@@H]2O[C@@H]3COP(=S)(S)O[C@H]4[C@H](F)[C@H](n5cnc6c(N)ncnc65)O[C@@H]4COP(O)(=S)O[C@@H]2[C@@H]3F)c(=O)[nH]1 (single isomer, unassigned) [Example 2]
- EC50 (full-length HAQ STING): 2 nM
- EC50 (full-length WT STING; EC50, competition with tritiated cGAMP ligand): 9 nM
- % Effect at 30 μM relative to 2′3′-cGAMP (THP1 cells): 175%

Structure (SMILES): Nc1nc2c(ncn2[C@@H]2O[C@@H]3COP(=S)(S)O[C@H]4C[C@H](n5ccc6c(N)ncnc65)O[C@@H]4COP(O)(=S)O[C@@H]2C3)c(=O)[nH]1 (single isomer, unassigned) [Example 5]
- EC50 (full-length HAQ STING): < 1 nM
- EC50 (full-length WT STING; [1]): 8 nM
- activation at 30 µM (THP1 cells): 95%

Structure (SMILES): Nc1nc2c(ncn2[C@@H]2O[C@@H]3COP(=S)(S)O[C@H]4C[C@H](n5ccc6c(N)ncnc65)O[C@@H]4COP(O)(=S)O[C@@H]2C3)c(=O)[nH]1 (single isomer, unassigned) [Example 6]
- EC50 (full-length HAQ STING): 28 nM
- EC50 (full-length WT STING; [1]): 115 nM
- % Effect at 30 μM relative to 2′3′-cGAMP (THP1 cells): 91%

Structure (SMILES): Nc1nc2c(ncn2[C@@H]2O[C@@H]3COP(=S)(S)O[C@H]4C[C@H](c5cnc6c(N)ncnn56)O[C@@H]4COP(O)(=S)O[C@@H]2C3)c(=O)[nH]1 (single isomer, unassigned) [Example 7]
- EC50 (full-length HAQ STING): < 1 nM
- EC50 (full-length WT STING; [1]): < 1 nM
- % Effect at 30 μM relative to 2′3′-cGAMP (THP1 cells): 173%

Structure (SMILES): Nc1nc2c(ncn2[C@@H]2O[C@@H]3COP(=S)(S)O[C@H]4[C@H]5OC[C@]4(COP(=O)(O)O[C@@H]2[C@H]3F)O[C@H]5n2cnc3c(N)ncnc32)c(=O)[nH]1 (stereo partly drawn) [Example 17, 2-amino-9-[(5R,7R,8S,12aR,14R,15R,15aS,18S)-14-(6-amino-9H-purin-9-yl)-18-fluoro-10-hydroxy-10-oxido-2-sulfanyl-2-sulfidohexahydro-14H-15,12a-(epoxymethano)-5,8-methanofuro[3,2-l][1,3,6,9,11,2,10]pentaoxadiphosphacyclotetradecin-7(12H)-yl]-1,9-dihydro-6H-purin-6-one]
- EC50 (full-length HAQ STING): 15 nM
- activation at 30 µM (THP1 cells): 145%

Structure (SMILES): Nc1nc2c(ncn2[C@@H]2S[C@@H]3COP(=S)(S)O[C@H]4[C@H](F)[C@H](n5cnc6c(N)ncnc65)O[C@@H]4COP(O)(=S)O[C@@H]2[C@@H]3O)c(=O)[nH]1 (stereo partly drawn) [Example 16, 2-amino-9-[(5R,7R,8R,12aR,14R,15S,15aR,16S)-14-(6-amino-9H-purin-9-yl)-15-fluoro-10,16-dihydroxy-2-sulfanyl-2,10-disulfidooctahydro-12H-5,8-methanofuro[3,2-l][1,3,9,11,6,2,10]tetraoxathiadiphosphacyclotetradecin-7-yl]-1,9-dihydro-6H-purin-6-one]
- EC50 (full-length HAQ STING): 5 nM
- EC50 (full-length WT STING; [1]): 18 nM
- activation at 30 µM (THP1 cells): 107%

Structure (SMILES): Nc1nc2c(ncn2[C@@H]2S[C@@H]3COP(=S)(S)O[C@H]4[C@H]5OC[C@]4(COP(=O)(O)O[C@@H]2[C@@H]3O)O[C@H]5n2cnc3c(N)ncnc32)c(=O)[nH]1 (stereo partly drawn) [Example 21, 2-amino-9-[(5R,7R,8R,12aR,14R,15R, 15aS,18S)-14-(6-amino-9H-purin-9-yl)-10,18-dihydroxy-10-oxido-2-sulfanyl-2-sulfidohexahydro-14H-15,12a-(epoxymethano)-5,8-methanofuro[3,2-1][1,3,9,11,6,2,10]tetraoxathiadiphosphacyclotetradecin-7(12H)-yl]-1,9-dihydro-6H-purin-6-one]
- EC50 (full-length HAQ STING): 217 nM
- EC50 (full-length WT STING; [1]): 1550 nM
- activation at 30 µM (THP1 cells): 45%

Structure (SMILES): Nc1nc2c(ncn2[C@@H]2O[C@@H]3COP(=S)(S)O[C@H]4[C@H]5OC[C@]4(COP(O)(=S)O[C@@H]2[C@H]3F)O[C@H]5n2cnc3c(N)ncnc32)c(=O)[nH]1 (stereo partly drawn) [Example 9, 2-amino-9-[(5R,7R,8S,12aR,14R,15R, 15aS,18S)-14-(6-amino-9H-purin-9-yl)-18-fluoro-10-hydroxy-2-sulfanyl-2,10-disulfidohexahydro-14H-15,12a-(epoxymethano)-5,8-methanofuro[3,2-1][1,3,6,9,11,2,10]pentaoxadiphosphacyclotetradecin-7(12H)-yl]-1,9-dihydro-6H-purin-6-one]
- EC50 (full-length HAQ STING): 349 nM
- EC50 (full-length WT STING; [1]): 4390 nM
- activation at 30 µM (THP1 cells): 26%

Structure (SMILES): Nc1nc2c(ncn2[C@@H]2O[C@@H]3COP(=S)(S)O[C@H]4C[C@H](n5cnc6c(=O)[nH]cnc65)O[C@@H]4COP(O)(=S)O[C@@H]2C3)c(=O)[nH]1 (single isomer, unassigned) [Example 25]
- EC50 (full-length WT STING; [1]): 2 nM
- % Effect at 30 μM relative to 2′3′-cGAMP (THP1 cells): 281%
